PMC5303205, “Comparative studies on the multi-component pharmacokinetics of Aristolochiae Fructus and honey-fried Aristolochiae Fructus extracts after oral administration in rats” (BMC Complementary and Alternative Medicine, 2017)
Where two headings read alike, the source gives them in different places.

Tests used:
[1] = Stability of AAs in rat plasma (QC samples, HPLC-MS/MS); assay type: in vitro ADME; details: n = 5; for Short-term stability (RSD/%): fresh rat plasma at room temperature for 24 h before sample preparation; for Post-preparation stability (RSD/%): prepared rat plasma samples at room temperature for 24 h; for Long-term stability (RSD/%): rat plasma stored at –20 °C for 14 days; for Freeze-thaw stability (RSD/%): rat plasma, three freeze-thaw cycles (–20 °C 24 h, thawed at room temperature)
Procedure, shortened: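 Rat plasma QC samples tested over three freeze-thaw cycles (–20 °C 24 h, thawed at room temperature), 14 days at –20 °C, 24 h at room temperature before preparation, and 24 h post-preparation, by HPLC-MS/MS. Mean concentrations compared with freshly prepared samples; bias within ±15% accepted.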

[2] = Multi-component pharmacokinetics of AAs in rats after oral administration of AF and HAF extracts (HPLC-MS/MS of plasma); set-up: species or system Sprague–Dawley (SD) rats; details: Sprague-Dawley, rat, in vivo
Procedure, shortened: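 Rats were fasted 12 h and given AF or HAF extracts orally in 0.5% CMC–Na at 3.0, 8.0 or 15.0 mg/kg (as AA I), n = 6 per group. Ocular-vein plasma was sampled 0–24 h, ethyl-acetate extracted with internal standard, and analysed by C18 HPLC-MS/MS (positive ESI, MRM). Cmax was observed and other parameters model-fitted.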

[3] = high QC conc ng/mL: AA I 1830, AA II 3200, AA C 2980, AA D 3680, 7-OH AA I 3280
[4] = low QC conc ng/mL: AA I 1.83, AA II 8.00, AA C 186.3, AA D 36.8, 7-OH AA I 82.0
[5] = middle QC conc ng/mL: AA I 457.5, AA II 400, AA C 372.5, AA D 460, 7-OH AA I 410
[6] = 3 mg/kg, AF extract, low dose (3.0 mg/kg as AA I), analyte dose mg/kg: AA I 3.0, AA II 0.21, AA C 1.42, AA D 1.60, 7-OH AA I 2.33, n = 6
[7] = 3 mg/kg, HAF extract, low dose (3.0 mg/kg as AA I), analyte dose mg/kg: AA I 3.0, AA II 0.26, AA C 1.53, AA D 1.51, 7-OH AA I 2.48, n = 6
[8] = 8 mg/kg, AF extract, mid dose (8.0 mg/kg as AA I), analyte dose mg/kg: AA I 8.0, AA II 0.56, AA C 3.78, AA D 4.26, 7-OH AA I 6.22, n = 6
[9] = 8 mg/kg, HAF extract, mid dose (8.0 mg/kg as AA I), analyte dose mg/kg: AA I 8.0, AA II 0.69, AA C 4.09, AA D 4.03, 7-OH AA I 6.62, n = 6
[10] = 15 mg/kg, AF extract, high dose (15.0 mg/kg as AA I), analyte dose mg/kg: AA I 15.0, AA II 1.05, AA C 7.09, AA D 8.00, 7-OH AA I 11.66, n = 6
[11] = 15 mg/kg, HAF extract, high dose (15.0 mg/kg as AA I), analyte dose mg/kg: AA I 15.0, AA II 1.29, AA C 7.66, AA D 7.56, 7-OH AA I 12.41, n = 6

With `O=C(O)c1cc2c(c3c1c([N+](=O)[O-])cc1ccccc13)OCO2` [AA II] the “Short-term stability (RSD/%)” value [1, 3] was 9.3%, the “Short-term stability (RSD/%)” value [1, 4] was 5.0% and the “Short-term stability (RSD/%)” value [1, 5] was 5.5%. The “Post-preparation stability (RSD/%)” value [1, 3] was 6.5%, the “Post-preparation stability (RSD/%)” value [1, 4] was 4.4% and the “Post-preparation stability (RSD/%)” value [1, 5] was 3.6%. For the same compound, the “Long-term stability (RSD/%)” value [1, 3] was 7.3%, the “Long-term stability (RSD/%)” value [1, 4] was 1.2% and the “Long-term stability (RSD/%)” value [1, 5] was 8.2%. For the same compound, the “Freeze-thaw stability (RSD/%)” value [1, 3] was 14.3%, the “Freeze-thaw stability (RSD/%)” value [1, 4] was 1.3% and the “Freeze-thaw stability (RSD/%)” value [1, 5] was 10.2%. It also gave an AUC(0-inf) [2, 6] of 3960 ± 1000 ng·h/mL, a Cmax [2, 6] of 590 ± 191 ng/mL and a Tmax [2, 6] of 1.03 ± 0.18 h. It also gave a CL/F ([2]; 3 mg/kg, AF extract, low dose (3.0 mg/kg as AA I), analyte dose mg/kg: AA I 3.0, AA II 0.21, AA C 1.42, AA D 1.60, 7-OH AA I 2.33, n = 6, read-out: CLz/F (converted)) of 1.17 mL/min/kg, a Vd/F ([2]; 3 mg/kg, AF extract, low dose (3.0 mg/kg as AA I), analyte dose mg/kg: AA I 3.0, AA II 0.21, AA C 1.42, AA D 1.60, 7-OH AA I 2.33, n = 6, read-out: Vz/F) of 0.49 ± 0.06 L/kg and a half-life ([2]; 3 mg/kg, AF extract, low dose (3.0 mg/kg as AA I), analyte dose mg/kg: AA I 3.0, AA II 0.21, AA C 1.42, AA D 1.60, 7-OH AA I 2.33, n = 6, read-out: t 1/2z (converted)) of 4.98 ± 0.55 h. For the same compound, the AUC(0-inf) [2, 7] was 2720 ± 795 ng·h/mL, the Cmax [2, 7] was 293 ± 55.2 ng/mL and the Tmax [2, 7] was 0.81 ± 0.14 h. It also gave a CL/F ([2]; 3 mg/kg, HAF extract, low dose (3.0 mg/kg as AA I), analyte dose mg/kg: AA I 3.0, AA II 0.26, AA C 1.53, AA D 1.51, 7-OH AA I 2.48, n = 6, read-out: CLz/F (converted)) of 1.33 mL/min/kg, a Vd/F ([2]; 3 mg/kg, HAF extract, low dose (3.0 mg/kg as AA I), analyte dose mg/kg: AA I 3.0, AA II 0.26, AA C 1.53, AA D 1.51, 7-OH AA I 2.48, n = 6, read-out: Vz/F) of 0.55 ± 0.07 L/kg and a half-life ([2]; 3 mg/kg, HAF extract, low dose (3.0 mg/kg as AA I), analyte dose mg/kg: AA I 3.0, AA II 0.26, AA C 1.53, AA D 1.51, 7-OH AA I 2.48, n = 6, read-out: t 1/2z (converted)) of 4.94 ± 0.61 h. For the same compound, the AUC(0-inf) [2, 8] was 7820 ± 1980 ng·h/mL, the Cmax [2, 8] was 1140 ± 193 ng/mL and the Tmax [2, 8] was 1.33 ± 0.21 h. The CL/F ([2]; 8 mg/kg, AF extract, mid dose (8.0 mg/kg as AA I), analyte dose mg/kg: AA I 8.0, AA II 0.56, AA C 3.78, AA D 4.26, 7-OH AA I 6.22, n = 6, read-out: CLz/F (converted)) was 1.17 mL/min/kg, the Vd/F ([2]; 8 mg/kg, AF extract, mid dose (8.0 mg/kg as AA I), analyte dose mg/kg: AA I 8.0, AA II 0.56, AA C 3.78, AA D 4.26, 7-OH AA I 6.22, n = 6, read-out: Vz/F) was 0.48 ± 0.05 L/kg and the half-life ([2]; 8 mg/kg, AF extract, mid dose (8.0 mg/kg as AA I), analyte dose mg/kg: AA I 8.0, AA II 0.56, AA C 3.78, AA D 4.26, 7-OH AA I 6.22, n = 6, read-out: t 1/2z (converted)) was 5.06 ± 0.49 h. It also gave an AUC(0-inf) [2, 9] of 3870 ± 1200 ng·h/mL, a Cmax [2, 9] of 412 ± 104 ng/mL and a Tmax [2, 9] of 0.81 ± 0.16 h. The CL/F ([2]; 8 mg/kg, HAF extract, mid dose (8.0 mg/kg as AA I), analyte dose mg/kg: AA I 8.0, AA II 0.69, AA C 4.09, AA D 4.03, 7-OH AA I 6.62, n = 6, read-out: CLz/F (converted)) was 1.17 mL/min/kg, the Vd/F ([2]; 8 mg/kg, HAF extract, mid dose (8.0 mg/kg as AA I), analyte dose mg/kg: AA I 8.0, AA II 0.69, AA C 4.09, AA D 4.03, 7-OH AA I 6.62, n = 6, read-out: Vz/F) was 0.49 ± 0.06 L/kg and the half-life ([2]; 8 mg/kg, HAF extract, mid dose (8.0 mg/kg as AA I), analyte dose mg/kg: AA I 8.0, AA II 0.69, AA C 4.09, AA D 4.03, 7-OH AA I 6.62, n = 6, read-out: t 1/2z (converted)) was 4.95 ± 0.53 h. The AUC(0-inf) [2, 10] was 12700 ± 2960 ng·h/mL, the Cmax [2, 10] was 1520 ± 200 ng/mL and the Tmax [2, 10] was 1.83 ± 0.29 h. It also gave a CL/F ([2]; 15 mg/kg, AF extract, high dose (15.0 mg/kg as AA I), analyte dose mg/kg: AA I 15.0, AA II 1.05, AA C 7.09, AA D 8.00, 7-OH AA I 11.66, n = 6, read-out: CLz/F (converted)) of 1.83 mL/min/kg, a Vd/F ([2]; 15 mg/kg, AF extract, high dose (15.0 mg/kg as AA I), analyte dose mg/kg: AA I 15.0, AA II 1.05, AA C 7.09, AA D 8.00, 7-OH AA I 11.66, n = 6, read-out: Vz/F) of 0.82 ± 0.09 L/kg and a half-life ([2]; 15 mg/kg, AF extract, high dose (15.0 mg/kg as AA I), analyte dose mg/kg: AA I 15.0, AA II 1.05, AA C 7.09, AA D 8.00, 7-OH AA I 11.66, n = 6, read-out: t 1/2z (converted)) of 5.16 ± 0.52 h. For the same compound, the AUC(0-inf) [2, 11] was 5630 ± 1690 ng·h/mL, the Cmax [2, 11] was 528 ± 62.4 ng/mL and the Tmax [2, 11] was 0.93 ± 0.19 h. The CL/F ([2]; 15 mg/kg, HAF extract, high dose (15.0 mg/kg as AA I), analyte dose mg/kg: AA I 15.0, AA II 1.29, AA C 7.66, AA D 7.56, 7-OH AA I 12.41, n = 6, read-out: CLz/F (converted)) was 1.5 mL/min/kg, the Vd/F ([2]; 15 mg/kg, HAF extract, high dose (15.0 mg/kg as AA I), analyte dose mg/kg: AA I 15.0, AA II 1.29, AA C 7.66, AA D 7.56, 7-OH AA I 12.41, n = 6, read-out: Vz/F) was 0.72 ± 0.08 L/kg and the half-life ([2]; 15 mg/kg, HAF extract, high dose (15.0 mg/kg as AA I), analyte dose mg/kg: AA I 15.0, AA II 1.29, AA C 7.66, AA D 7.56, 7-OH AA I 12.41, n = 6, read-out: t 1/2z (converted)) was 5.39 ± 0.48 h.
